Experimental data reported in patent US11578055B2, “Triazacyclododecansulfonamide (“TCD”)-based protein secretion inhibitors” (KEZAR LIFE SCIENCES, priority 2018, dated 2023).
Where two headings read alike, the source gives them in different places.

Assays:
[1] = tested on: PD1 signal sequence plus 10 amino acids fused to Gaussia Luciferase (PD1-ss+10aa/Gaussia Luciferase); test: Dox Induced PD1-ss-Gluc Assay; type: cell-based; details: 24 hr, read-out: 24 hr Dox Inducible PD1ssGluc 293FRT/TO: Mean IC50
How it was run: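 Compound dilutions in DMSO/media containing doxycycline were applied to a stable, inducible 293 T-REx line carrying the luciferase fusion, then incubated at 37 °C, 5% CO2. Where stereochemistry is not drawn, values relate to isomer mixtures.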

[2] = tested on: multiple myeloma cell line U266B1; test: U266 Cell Viability Assay; type: cell-based, human; details: Homo sapiens, U-266, 48 hr
How it was run: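 Viability was measured by CellTiter-Glo luminescence after 48 h compound exposure at 37° C, 5% CO2. The cells were U266B1 multiple myeloma cells grown in RPMI 1640 plus 10% FBS. Where stereochemistry is not shown, values apply to the stereoisomer mixture.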

[3] = In Vitro Microsome Stability Assay (mouse); type: in vitro ADME
How it was run: (§1)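 Species liver microsomes in potassium phosphate buffer were preincubated at 37 °C for 3–5 min with test compound (added from 0.25 mM DMSO stock), then started with NADPH. Samples at 0 and 30 min were quenched with acetonitrile containing internal standard and analysed by LC-MS/MS; % remaining at 30 min used analyte/IS AUC ratios relative to t=0.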

[4] = In Vitro Microsome Stability Assay (rat); type: in vitro ADME
How it was run: as §1

[5] = In Vitro Microsome Stability Assay (monkey); type: in vitro ADME
How it was run: as §1

[6] = tested on: target signal sequences plus 10 amino acids fused to Gaussia Luciferase; test: Transiently Expressed Dox Induced Signal Sequence-Gluc Assay; type: cell-based; details: read-out: Signal Sequence-Gluc potency
Experimental: FIp-In 293 T-REx™ cells were transfected with 500 ng pcDNA™5/FRT/TO plasmids inserted with cDNA encoding Gaussia Luciferase fused to the 3′ end of cDNA encoding target signal sequences plus 10 amino acids. Transfected cells were incubated overnight then cells were trypsinized and plated in 384-well tissue culture plates. The next day, compound dilutions in DMSO/media containing doxycycline were added to the wells and incubated at 37° C., 5% CO2.

[7] = tested on: IFNγ; test: Human PBMC Cytokine Assay: IFNγ; type: cell-based; details: anti-CD3/CD28 stimulation, 24 hours
Experimental: (§2) Human PBMC were freshly isolated from whole blood collections of 3 normal donors utilizing density gradient centrifugation followed by red blood cell lysis. PBMC from each donor were assayed separately. Cells were suspended in RPMI 1640 media supplemented with 5% fetal bovine serum, 2 mM L-glutamine, 10 mM HEPES, and 1× penicillin/streptomycin. PBMC were seeded at 200,000 cells/well in 96-well round-bottom plates either without stimulation or with stimulation by lipopolysaccharide (LPS, 1 μg/mL) or antibodies against human CD3 (plate-bound, 2 μg/mL) and human CD28 (soluble, 2 μg/mL). Serial dilutions of compound in DMSO/media were simultaneously added and PBMC were incubated at 37° C., 5% CO2 for 24 hours. After 24 hours, plates were centrifuged and half of the supernatant volume removed for cytokine analysis by electrochemiluminescent immunoassay (U-PLEX® Biomarker Multiplex, Meso Scale Discovery). For viability analysis, CellTiter-Glo® (Promega) was added to the remaining material in each well and quantified via luminescent plate reader.

[8] = tested on: IL-2; test: Human PBMC Cytokine Assay: IL-2; type: cell-based; details: anti-CD3/CD28 stimulation, 24 hours
Experimental: as §2

[9] = Target ADAM10 signal peptide +10 amino acids
[10] = Target B7H3 signal peptide +10 amino acids
[11] = Target CD73 signal peptide +10 amino acids
[12] = Target CD96 signal peptide +10 amino acids
[13] = Target CTLA-4 signal peptide +10 amino acids
[14] = Target EGFR signal peptide +10 amino acids
[15] = Target GP130 signal peptide +10 amino acids
[16] = Target HER3 signal peptide +10 amino acids
[17] = Target IFN-a1 signal peptide +10 amino acids
[18] = Target IFN-a2 signal peptide +10 amino acids
[19] = Target IFN-a4 signal peptide +10 amino acids
[20] = Target IFN-b signal peptide +10 amino acids
[21] = Target IFNAR1 signal peptide +10 amino acids
[22] = Target IFNAR2 signal peptide +10 amino acids
[23] = Target IL-1R1 signal peptide +10 amino acids
[24] = Target IL-1R2 signal peptide +10 amino acids
[25] = Target IL-1Ra (isoform 1) signal peptide +10 amino acids
[26] = Target IL-2Ra (CD25) signal peptide +10 amino acids
[27] = Target IL-6R signal peptide +10 amino acids
[28] = Target IL-6 signal peptide +10 amino acids
[29] = Target IL-7R signal peptide +10 amino acids
[30] = Target IL-12b (p40) signal peptide +10 amino acids
[31] = Target IL-17Ra signal peptide +10 amino acids
[32] = Target IL-17a signal peptide +10 amino acids
[33] = Target IL-23R signal peptide +10 amino acids
[34] = Target IL-23a signal peptide +10 amino acids
[35] = Target LAG3 signal peptide +10 amino acids
[36] = Target PD-L1 signal peptide +10 amino acids
[37] = Target PDGFRa signal peptide +10 amino acids
[38] = Target TACE (ADAM17) signal peptide +10 amino acids
[39] = Target TIGIT signal peptide +10 amino acids
[40] = Target TIM3 signal peptide +10 amino acids
[41] = Target TNFR1 signal peptide +10 amino acids
[42] = Target TNFR2 signal peptide +10 amino acids
[43] = Target VEGF signal peptide +10 amino acids
[44] = Target VGFR2 signal peptide +10 amino acids
[45] = Target VISTA signal peptide +10 amino acids
[46] = mouse liver microsomes, 30 min w/ NADPH
[47] = rat liver microsomes, 30 min w/ NADPH
[48] = monkey liver microsomes, 30 min w/ NADPH

## C[C@H]1CN(S(=O)(=O)c2ccc(N(C)C)cc2)CCCN(CC2CCCCC2)CCCN(S(=O)(=O)N2CCc3cc(Cl)ccc3C2)C1 [A87]
[1]; 293FRT/TO
  IC50: 19.1 nM
[2]; U266, read-out: 48 hr U266 Viability Celltiter-Glo: Mean EC50
  EC50: > 25000 nM
[3]; mouse, 30 min, NADPH
  Liver Microsome Stability-% Left after 30 min w/ NADPH (%) Mouse: 49.6%
[4]; rat, 30 min, NADPH
  Liver Microsome Stability-% Left after 30 min w/ NADPH (%) Rat: 43.6%
[5]; monkey, 30 min, NADPH
  Liver Microsome Stability-% Left after 30 min w/ NADPH (%) Monkey: 32.7%
[6]; [9]
  IC50: 231 nM
[6]; [10]
  IC50: 27 nM
[6]; [11]
  IC50: 58 nM
[6]; [12]
  IC50: 12 nM
[6]; [13]
  IC50: 259 nM
[6]; [14]
  IC50: 60 nM
[6]; [15]
  IC50: 201 nM
[6]; [16]
  IC50: 89 nM
[6]; [17]
  IC50: 128 nM
[6]; [18]
  IC50: 51 nM
[6]; [19]
  IC50: 221 nM
[6]; [20]
  IC50: 818 nM
[6]; [21]
  IC50: 14 nM
[6]; [22]
  IC50: 133 nM
[6]; [23]
  IC50: 374 nM
[6]; [24]
  IC50: 23 nM
[6]; [25]
  IC50: 111 nM
[6]; [26]
  IC50: 159 nM
[6]; [27]
  IC50: 78 nM
[6]; [28]
  IC50: 66 nM
[6]; [29]
  IC50: 58 nM
[6]; [30]
  IC50: 155 nM
[6]; [31]
  IC50: 424 nM
[6]; [32]
  IC50: 447 nM
[6]; [33]
  IC50: 111 nM
[6]; [34]
  IC50: 567 nM
[6]; [35]
  IC50: 75 nM
[6]; [36]
  IC50: 56 nM
[6]; [37]
  IC50: 90 nM
[6]; [38]
  IC50: 66 nM
[6]; [39]
  IC50: 162 nM
[6]; [40]
  IC50: 282 nM
[6]; [41]
  IC50: 307 nM
[6]; [42]
  IC50: 564 nM
[6]; [43]
  IC50: 111 nM
[6]; [44]
  IC50: 684 nM
[6]; [45]
  IC50: 211 nM
[7]
  IC50: 152 nM
[8]
  IC50: 31 nM

## COc1cc(F)ccc1N1CCN(S(=O)(=O)N2CCCN(CC3CCCCC3)CCCN(S(=O)(=O)c3ccc(N(C)C)cc3)C[C@H](C)C2)CC1 [A137]
[1]; Dox inducible, 293FRT/TO cells
  IC50: 8.3 nM
[2]; U266, Celltiter-Glo
  EC50: > 25000 nM
[3]; [46]
  Liver Microsome Stability-% Left after 30 min w/ NADPH (%) Mouse: 28%
[4]; [47]
  Liver Microsome Stability-% Left after 30 min w/ NADPH (%) Rat: 31.6%
[5]; [48]
  Liver Microsome Stability-% Left after 30 min w/ NADPH (%) Monkey: 14.2%
[6]; [9]
  IC50: 127 nM
[6]; [10]
  IC50: 9 nM
[6]; [11]
  IC50: 44 nM
[6]; [12]
  IC50: 7 nM
[6]; [13]
  IC50: 112 nM
[6]; [14]
  IC50: 47 nM
[6]; [15]
  IC50: 161 nM
[6]; [16]
  IC50: 57 nM
[6]; [17]
  IC50: 57 nM
[6]; [18]
  IC50: 44 nM
[6]; [19]
  IC50: 89 nM
[6]; [20]
  IC50: 288 nM
[6]; [21]
  IC50: 6 nM
[6]; [22]
  IC50: 42 nM
[6]; [23]
  IC50: 282 nM
[6]; [24]
  IC50: 17 nM
[6]; [25]
  IC50: 47 nM
[6]; [26]
  IC50: 55 nM
[6]; [27]
  IC50: 48 nM
[6]; [28]
  IC50: 38 nM
[6]; [29]
  IC50: 16 nM
[6]; [30]
  IC50: 74 nM
[6]; [31]
  IC50: 176 nM
[6]; [32]
  IC50: 216 nM
[6]; [33]
  IC50: 47 nM
[6]; [34]
  IC50: 223 nM
[6]; [35]
  IC50: 48 nM
[6]; [36]
  IC50: 19 nM
[6]; [37]
  IC50: 37 nM
[6]; [38]
  IC50: 40 nM
[6]; [39]
  IC50: 79 nM
[6]; [40]
  IC50: 132 nM
[6]; [41]
  IC50: 152 nM
[6]; [42]
  IC50: 186 nM
[6]; [43]
  IC50: 51 nM
[6]; [44]
  IC50: 213 nM
[6]; [45]
  IC50: 150 nM
[7]
  IC50: 21 nM
[8]
  IC50: 8 nM

## C[C@H]1CN(S(=O)(=O)c2ccc(N(C)C)cc2)CCCN(CC2CCCCC2)CCCN(S(=O)(=O)N2CCc3c(C#N)cccc3C2)C1 [A151, 2-{[(3S)-9-(cyclohexylmethyl)-5-[4-(dimethylamino)benzenesulfonyl]-3-methyl-1,5,9-triazacyclododecan-1-yl]sulfonyl}-1,2,3,4-tetrahydroisoquinoline-5-carbonitrile]
[1]; Dox inducible, 293FRT/TO cells
  IC50: 153 nM
[2]; U266, Celltiter-Glo
  EC50: > 25000 nM
[3]; [46]
  Liver Microsome Stability-% Left after 30 min w/ NADPH (%) Mouse: 4.55%
[4]; [47]
  Liver Microsome Stability-% Left after 30 min w/ NADPH (%) Rat: 4.2%
[5]; [48]
  Liver Microsome Stability-% Left after 30 min w/ NADPH (%) Monkey: 3.98%
[6]; [9]
  IC50: 849 nM
[6]; [10]
  IC50: 201 nM
[6]; [11]
  IC50: 375 nM
[6]; [12]
  IC50: 107 nM
[6]; [13]
  IC50: 1140 nM
[6]; [14]
  IC50: 412 nM
[6]; [15]
  IC50: 969 nM
[6]; [16]
  IC50: 522 nM
[6]; [17]
  IC50: 820 nM
[6]; [18]
  IC50: 404 nM
[6]; [19]
  IC50: 1130 nM
[6]; [20]
  IC50: 4300 nM
[6]; [21]
  IC50: 145 nM
[6]; [22]
  IC50: 778 nM
[6]; [23]
  IC50: 1470 nM
[6]; [24]
  IC50: 168 nM
[6]; [25]
  IC50: 666 nM
[6]; [26]
  IC50: 876 nM
[6]; [27]
  IC50: 445 nM
[6]; [28]
  IC50: 437 nM
[6]; [29]
  IC50: 392 nM
[6]; [30]
  IC50: 913 nM
[6]; [31]
  IC50: 1860 nM
[6]; [32]
  IC50: 1820 nM
[6]; [33]
  IC50: 666 nM
[6]; [34]
  IC50: 1920 nM
[6]; [35]
  IC50: 464 nM
[6]; [36]
  IC50: 366 nM
[6]; [37]
  IC50: 565 nM
[6]; [38]
  IC50: 391 nM
[6]; [39]
  IC50: 737 nM
[6]; [40]
  IC50: 1350 nM
[6]; [41]
  IC50: 1620 nM
[6]; [42]
  IC50: 2110 nM
[6]; [43]
  IC50: 645 nM
[6]; [44]
  IC50: 2590 nM
[6]; [45]
  IC50: 911 nM

## COc1cc(F)ccc1N1CCN(S(=O)(=O)N2CCCN(CC3CCCCC3)CCCN(S(=O)(=O)c3ccc(N(C)C)cc3)C[C@H](C)C2)C[C@H]1C [A177, 4-{[(3S)-9-(cyclohexylmethyl)-5-{[(3 R)-4-(4-fluoro-2-methoxyphenyl)-3-methylpiperazin-1-yl]sulfonyl}-3-methyl-1,5,9-triazacyclododecan-1-yl]sulfonyl}-N,N-dimethylaniline]
[1]; Dox inducible, 293FRT/TO cells
  IC50: 4.95 nM
[2]; U266, Celltiter-Glo
  EC50: > 25000 nM
[3]; [46]
  Liver Microsome Stability-% Left after 30 min w/ NADPH (%) Mouse: 11.6%
[4]; [47]
  Liver Microsome Stability-% Left after 30 min w/ NADPH (%) Rat: 14.5%
[5]; [48]
  Liver Microsome Stability-% Left after 30 min w/ NADPH (%) Monkey: 2.8%
[7]
  IC50: 19 nM
[8]
  IC50: 10 nM
